Measurements from US9040714B2 (MannKind Corporation, priority 2010, dated 2015).

Legend:
[1] = system: XBP-1 splicing in RPMI 8226 cells; assay: Inhibition of thapsigargin-induced endogenous XBP-1 splicing in RPMI 8226 cells (RT-PCR); type: cell-based, human; conditions: 300 nM, 2 hours
Protocol: PCR amplification products were run on a 4% agarose gel and stained with ethidium bromide. The inverse image is shown.
Cell Culture. RPMI 8226 cells were grown in monolayer culture using Dulbecco's Modified Eagle Medium (DMEM) supplemented with 10% fetal calf serum (FCS) at 37° C. and 5% CO2. Compounds were kept as 10 mM stock in DMSO at −20° C. and diluted in medium to 10 μM, Thapsigargin (Tg) was resuspended in DMSO and diluted in medium,
RT-qPCR. Procedures for measuring XBP-1s and XBP-1u mRNAs have been described previously (Volkmann et al., J. Biol. Chem. 286, 12743-55, 2011). Briefly, total RNA was harvested from cells or tissue using TRIZOL® (Invitrogen) according to the manufacture's procedures. After ethanol, precipitation and resuspension of the RNA, RIBOGREEN® (Invitrogen) was used to quantify the yield—and normalize the RNA concentration in the source tube containing isolated RNA. RT-PCR was performed by oligo dT priming, […]® II (Invitrogen) and reverse transcription using the […] GOLD® Kit (Applied Biosystems) according to the manufacturer's protocols. Primers for human XBP-1 were
All DNA oligos were purchased from IDT DNA Technologies. PCR reactions were run on a Bio-Rad PTC-100® 96-well thermocycler; heating at 94° C. for 30 seconds, annealing at 58° C. for 30 seconds polymerizing at 72° C. for 30 seconds for 35 cycles. […]

[2] = system: XBP-1 splicing in liver and kidney; assay: XBP-1 splicing inhibition in livers and kidneys of mice after tunicamycin; type: in vivo, CB17 SCID mice; conditions: 1 mg/kg IP, relative to PBS treated mice
Description: The preclinical validation strategy employs a set of animal models representing normal tissues under chemical stress and multiple myeloma xenography. The normal animal model is employed as a surrogate model where dose-related on-target activity of compounds can be confirmed in tissues sensitive to standard UPR inducing agents such as tunicamycin (Wu et al., Dev Cell. 2007 September; 13 (1d):351-64). […] Upon induction with tunicamycin, tissues induce active XBP-1 mRNA, splicing, and this activity is suppressed by IRE-1α inhibitors. This on-target ER stress animal model is a useful screening and early pharmacokinetic tool.
CB17 SCID mice were treated with 1 mg/kg tunicamycin by intraperitoneal (IP) injection at time 0 (T=0). Two hours later, compound A formulated in 10% hydroxy beta propyl cyclo dextran HBPCD was administered by IP injection. Doses were 50 mg/kg, 25 mg/kg and 10 mg/kg (4 mice in each group). Mice were sacrificed two hours later (4 hours from T=0), and the designated organs were harvested (FIG. 3A).
RT-PCR analysis was performed using murine-specific XBP-1 primers from total RNA harvested from specified organs. […] Each lane represents an individual mouse where RNA was harvested and RT-PCR was performed. Method of RNA extraction and RT-PCR analysis is described in Volkmann et al., J. Biol. Chem. 286, 12743-55, 2011. […]

Molecule | induction of XBP-1s [1] | induction of XBP-1 spliced (XBP-1s) [2]
C/C=C(/C)C(=O)O[C@H]1C(C)=C2[C@H]([C@@H]1OC(=O)CCCCCCC)[C@@](C)(OC(C)=O)C[C@H](OC(=O)CCC)[C@@]1(O)[C@H]2OC(=O)[C@@]1(C)O [Thapsigargin] | near complete conversion of XBP-1u to XBP-1s | 
tunicamycin |  | induces XBP-1 spliced (XBP-1s)
